Reference: patent publication US9975922B2, “Peptide inhibitor of HIV reverse transcription” (priority 2013, dated 2018)
Where a SMILES comes first, the peptide text is derived from it.

Key:
hypermodified ASL^Lys3 = conditions: result in words; cited from earlier work
[1] = tested on: singly modified ASL^Lys3, AsL^Lys1, 2 and Escherichia coli ASL^Glu and ASL^Val; conditions: singly modified ASL^Lys3, ASL^Lys1,2, E. coli ASL^Glu and ASL^Val; result in words; cited from earlier work
modified hASL^Lys3UUU [2] = assay: initial validation screen, change in peptide fluorescence on addition of ASL; assay type: binding, human; conditions: 2-fold excess of modified hASL^Lys3UUU; result in words
Protocol: (§1) An initial fluorescent signal (FS0) of peptide alone ([…]) was obtained. Then, a 2-fold excess of ASL was added to each peptide and the fluorescent signal (FS1) was monitored. The percent change (100*(FS1/FS0)) is graphed for each of the assayed peptides. Dark gray bars represent the percent change in fluorescence in the presence of the modified hASL^Lys3UUU and light gray bars represent the percent change in the presence of the unmodified hASL^Lys3UUU.
(§2) Sequences predicted during the in silico optimizations to have the lowest binding energies and thus, potentially higher affinity for modified hASL^Lys3, were selected for validation with a fluorescence assay (9). Fifteen peptides (Table 3) were chemically synthesized with fluorescein at the N-terminus to allow for very sensitive, low volume detection of peptide-RNA binding interactions. P1 and P6 from phage display selections (9), the initially evolved sequences, P26 and P27, and the best binders from each of the Cases 1, 2 and 3 were synthesized. Variants of these sequences that had one or two amino acid changes were also synthesized (Table 3). During the initial validation assay, changes in the amount of fluorescence were monitored to determine whether the peptide was binding to the modified and/or unmodified hASLLys3UUU and to what relative degree (FIG. 12). In this screening assay, P6 behaved as expected. […] Other peptides behaved similarly.
(§3) Fifteen-amino acid peptides were selected from the sequences predicted in silico and were chemically synthesized, each with fluorescein (Flc) at the N-terminus. This set of peptides included the original P1 and P6 sequences to be used as an internal control. […] Concentrated peptide stocks were stored in 25 μl aliquots at […] for later use. Working concentrations were diluted for each experiment and kept on ice or stored at −20° C.
(§4) Fluorescent assays were conducted in phosphate buffer (10 mM Na2HPO4 and 10 mM KH2PO4, pH 6.8) in low volume 384 well plates. All buffers, peptides, and RNA were pipetted into wells via a liquid handling robot (Janus, PerkinElmer). All plates were read using a plate reader fitted with fluorescein specific filters (PerkinElmer EnVision) which was optimized for each plate and peptide before each experiment. Initial validation screens were conducted by obtaining fluorescent signals for each peptide (0.50 μM) alone (FS0) and in the presence of a 2-fold excess of modified or unmodified hASLLys3UUU (FS1). Percent change in fluorescent signal was calculated (% Change=100*(FS1/FS0)). A decrease (quench) in fluorescent signal in the presence of RNA indicated a binding event between the peptide and ASL. In control wells H2O, phosphate buffer, and ASLs were individually tested for any inherent fluorescent signal. Water and buffer signals served as blank background signals. […] All controls and experimental sets were repeated in triplicate within a single plate and signals are an average of each triplicate. For the subset of peptides which were further studied to obtained binding constants, the fluorescent binding assay was completed as above. The peptide fluorescent signal was monitored throughout an increasing ASL concentration (0-3 μM). The percent quench in signal was plotted against the hASL concentration. Binding constants (Kd) were calculated using the single linear regression function within SigmaPlot. Experiments were performed in triplicate within a single plate and fluorescent signals are an average of each triplicate.

modified hASL^Lys3UUU [3] = assay: fluorescent binding assay of fluorescein-labeled peptides, binding constants; design: species or system human; conditions: for Kd: Modified hASL^Lys3UUU, N-terminal fluorescein peptide, phosphate buffer pH 6.8, ASL 0-3 μM; for affinity relative to P6: from Kd values, compared with P6
Protocol: as §3, §4

unmodified hASL^Lys3UUU [4] = assay: as above; design: species or system human; conditions: N-terminal fluorescein peptide, phosphate buffer pH 6.8, ASL 0-3 μM
Protocol: as §3, §4

modified hASLLys3 = conditions: cited from earlier work
unmodified ASL = conditions: NCp7, unmodified ASL; cited from earlier work
unmodified hASL^Lys3UUU [5] = assay: initial validation screen, change in peptide fluorescence on addition of ASL; assay type: binding, human; conditions: 2-fold excess of unmodified hASL^Lys3UUU; result in words
Protocol: as §1, §2, §3, §4

Q: With RGVFSHPHTAVPSHN as the molecule, how does the binding affinity (hypermodified ASL^Lys3) read?
A: relatively high binding affinity

Q: And the binding [1]?
A: bound poorly

Q: Which “change in fluorescent signal of peptide (binding, preference for modified ASL)” value (“change … (binding, preference for modified ASL)” for short) (modified hASL^Lys3UUU [2]) does the source give for RFQHSNWFSGWKVNG [Peptide P34] here?
A: increased the fluorescence either with the unmodified or modified hASL^Lys3UUU, but not both

Q: For RWTHCQFWQGFRVNG [Peptide P38], which “change … (binding, preference for modified ASL)” value (modified hASL^Lys3UUU [2]) is on record?
A: increased the fluorescence either with the unmodified or modified hASL^Lys3UUU, but not both

Q: Which “change … (binding, preference for modified ASL)” value (modified hASL^Lys3UUU [2]) does the source give for RHSHAHFGPPWLSHG [Peptide P33] here?
A: significantly weaker affinities and a lack of specificity

Q: For `CC(C)C[C@H](NC(=O)[C@H](CO)NC(=O)[C@@H]1CCCN1C(=O)[C@H](Cc1ccccc1)NC(=O)[C@H](CO)NC(=O)[C@@H](NC(=O)[C@H](CO)NC(=O)[C@@H](N)Cc1ccccc1)C(C)C)C(=O)N1CCC[C@H]1C(=O)N[C@@H](C)C(=O)N1CCC[C@H]1C(=O)N1CCC[C@H]1C(=O)N[C@@H](CC(=O)O)C(=O)N[C@@H](CCCNC(=N)N)C(=O)N[C@@H](CO)C(=O)O` [Peptide P1, FSVSFPSLPAPPDRS, reference compound] (H-FSVSFPSLPAPPDRS-OH), which Kd (modified hASL^Lys3UUU [3]) is on record?
A: 130 ± 20 nM

Q: And the “affinity relative to P6” value (modified hASL^Lys3UUU [3])?
A: four fold

Q: What about the Kd (unmodified hASL^Lys3UUU [4]) of the same molecule?
A: 150 ± 40 nM

Q: And the “change … (binding, preference for modified ASL)” value (modified hASL^Lys3UUU [2])?
A: increased the fluorescence either with the unmodified or modified hASL^Lys3UUU, but not both

Q: Which results are given for “NCp7: HIV-1 nucleocapsid protein 7, binds and destabilizes htRNA^Lys3UUU (MQRGNFRNQRKIVKCFNCGKEGHTARNCRAPRKKGCWKCGKEGHQMKDCTERQAN; Nucleocapsid protein p7; UniProt P04591 378-432, looked up)”?
A: Kd (modified hASLLys3; NCp7, modified hASLLys3): 280 ± 30 nM; increase of NCp7 affinity by the modifications (modified hASLLys3; modified vs unmodified hASLLys3): ~10 fold; Kd (unmodified ASL): 2300 ± 620 nM

Q: Which Kd (modified hASL^Lys3UUU [3]) does the source give for `CC(C)C[C@H](NC(=O)[C@H](Cc1ccccc1)NC(=O)[C@H](C)NC(=O)[C@H](Cc1c[nH]cn1)NC(=O)[C@H](Cc1c[nH]cn1)NC(=O)[C@@H](NC(=O)[C@@H](NC(=O)[C@@H](N)CCCNC(=N)N)C(C)C)[C@@H](C)O)C(=O)NCC(=O)N[C@@H](C)C(=O)N[C@@H](Cc1c[nH]cn1)C(=O)N[C@@H](CCCNC(=N)N)C(=O)N[C@H](C(=O)N[C@H](C(=O)NCC(=O)O)C(C)C)[C@@H](C)O` [Peptide P6, RVTHHAFLGAHRTVG, reference compound] (H-RVTHHAFLGAHRTVG-OH) here?
A: 500 ± 100 nM

Q: What about the “change … (binding, preference for modified ASL)” value (modified hASL^Lys3UUU [2]) of the same molecule?
A: quenched more than when bound by the unmodified hASL^Lys3UUU

Q: Which Kd (modified hASL^Lys3UUU [3]) does the source give for `CSCC[C@H](NC(=O)[C@H](CCCNC(=N)N)NC(=O)[C@H](Cc1c[nH]c2ccccc12)NC(=O)[C@H](CC(C)C)NC(=O)[C@@H]1CCCN1C(=O)[C@H](Cc1c[nH]cn1)NC(=O)[C@H](Cc1ccccc1)NC(=O)[C@H](CO)NC(=O)[C@H](Cc1c[nH]cn1)NC(=O)[C@H](Cc1c[nH]cn1)NC(=O)[C@H](CCC(N)=O)NC(=O)[C@H](Cc1c[nH]c2ccccc12)NC(=O)[C@@H](N)CCCNC(=N)N)C(=O)N[C@@H](CO)C(=O)NCC(=O)O` [Peptide P31, RWQHHSFHPLWRMSG] (H-RWQHHSFHPLWRMSG-OH) here?
A: 580 ± 240 nM

Q: And the “affinity relative to P6” value (modified hASL^Lys3UUU [3])?
A: equivalent to P6

Q: What about the “change … (binding, preference for modified ASL)” value (modified hASL^Lys3UUU [2]) of the same molecule?
A: quenched to a greater degree in binding the modified hASL^Lys3UUU than was the fluorescence of P6

Q: What about the “change in fluorescent signal of peptide” value (unmodified hASL^Lys3UUU [5]) of the same molecule?
A: little or no change in fluorescence

Q: With RTLHHALFGAHQTVG [Peptide P26] as the molecule, how does the “change … (binding, preference for modified ASL)” value (modified hASL^Lys3UUU [2]) read?
A: increased the fluorescence either with the unmodified or modified hASL^Lys3UUU, but not both

Q: With RHHHASFGPPWLSHG [Peptide P32] as the molecule, how does the “change … (binding, preference for modified ASL)” value (modified hASL^Lys3UUU [2]) read?
A: significantly weaker affinities and a lack of specificity

Q: With `CSCC[C@H](NC(=O)[C@H](CCC(N)=O)NC(=O)[C@H](Cc1c[nH]c2ccccc12)NC(=O)[C@@H](N)CCCNC(=N)N)C(=O)N[C@H](C(=O)N[C@@H](C)C(=O)N[C@@H](Cc1ccccc1)C(=O)N[C@@H](C)C(=O)N[C@@H](Cc1c[nH]cn1)C(=O)NCC(=O)N[C@@H](Cc1c[nH]c2ccccc12)C(=O)N[C@@H](CCCNC(=N)N)C(=O)N[C@@H](Cc1c[nH]cn1)C(=O)N[C@@H](CO)C(=O)NCC(=O)O)[C@@H](C)O` [Peptide P27, RWQMTAFAHGWRHSG] (H-RWQMTAFAHGWRHSG-OH) as the molecule, how does the Kd (modified hASL^Lys3UUU [3]) read?
A: 50 ± 20 nM

Q: And the “affinity relative to P6” value (modified hASL^Lys3UUU [3])?
A: 10 fold

Q: What about the “change … (binding, preference for modified ASL)” value (modified hASL^Lys3UUU [2]) of the same molecule?
A: quenched to a greater degree in binding the modified hASL^Lys3UUU than was the fluorescence of P6

Q: What about the “change in fluorescent signal of peptide” value (unmodified hASL^Lys3UUU [5]) of the same molecule?
A: little or no change in fluorescence

Q: With RWNGSQWFCAWRANG [Peptide P36] as the molecule, how does the “change … (binding, preference for modified ASL)” value (modified hASL^Lys3UUU [2]) read?
A: increased the fluorescence either with the unmodified or modified hASL^Lys3UUU, but not both
